Results on 2 compounds are retold here after PMC10573175 (International Journal of Molecular Sciences, 2023).

In assay [1] the target is T1, human serum albumin (HSA) (Homo sapiens, UniProt P02768). Put plainly: Intrinsic fluorescence quenching of HSA by ceftazidime (Stern–Volmer, modified Stern–Volmer, Van't Hoff analysis). It counts as binding. The following applies: for KSV (Stern–Volmer quenching constant): 20 mM tris buffer pH 7.4, excitation 295 nm; for ΔG (free energy change of binding): Van't Hoff. An excerpt: The intrinsic fluorescence of HSA is mainly contributed by a single tryptophan residue, which can be excited at 295 nm to give the maximum fluorescence emission at 340 nm. […] The corrected fluorescence data are used to further analyze the results given in the next section.
The fluorescence quenching is the result of either stable complex formation between fluorophore and the quencher or there is a collisional encounter between them. The first phenomenon is termed as static quenching, while the second one is known as dynamic quenching. […] The involvement of the quenching mechanism, either static or dynamic, can be understood with the help of temperature variation. Dynamic quenching increases in increasing the temperature while static quenching constant decreases in such a case.
The binding constant (Kb) and number of binding sites (n) can also be estimated using the modified Stern–Volmer equation as:(2) logF0−F/F=logKb+nlog[Q].
Van’t Hoff equations (given in Equations (S2) and (S3)) can be used to evaluate the thermodynamic parameters such as the free energy change (ΔG), enthalpy change (ΔH), and entropy change (ΔS) of a process using the values of physical parameters at equilibrium. Herein, we used the binding constant, Kb, at three different temperatures to fit into the Equation (S1) to obtain the values of ΔH from the slope and ΔS from the intercept of the plot of ln Kb vs. 1/T (Figure 5A), which are given in Table 1. The values of ΔH and ΔS were, further, used to calculate ΔG. From the evaluation of thermodynamic parameters, involvement of the major forces in the binding can be understood along with the feasibility of the interaction. According a to report published by Ross and Subramanian, hydrogen bonding interactions dominate when the values of ΔH and ΔS are negative, whereas positive values of these parameters can be observed in case of hydrophobic interactions.
UV-visible studies were performed on a Perkin Elmer Lambda 45 spectrophotometer (Germany) within the range of 200 nm to 500 nm as required. Intrinsic fluorescence measurements were performed on a Hitachi F 7000 spectrofluorometer (Japan) equipped with the programmable temperature controller. The excitation and emission slit widths were adjusted to 5 nm with a PMT voltage of 500 V. Circular dichroism (CD) spectrophotometric recordings were obtained with a Jasco J-815 spectropolarimeter (Japan) using a quartz cuvette of […]. The studies were carried out in the 20 mM tris buffer of pH 7.4 and at 25 °C unless stated otherwise. Autodock 4.2 [36] was used to perform molecular docking and MD simulations were performed through GROMACS 2021.3 [37] with the utilization of the CHARMM force field for a production run of 100 ns. The detailed methodology is given in the Supplementary Materials. […]

For assay [2], the target named is T1, human serum albumin (HSA). Put plainly: Competitive binding site assay with site markers warfarin, ibuprofen and hemin (fluorescence quenching). The following applies: for KSV: 25 °C. From the text:
DS1 is located in subdomain IIA, while DS2 is located in subdomain IIIA. There are several molecules that have the specific affinities towards these binding sites; for instance, warfarin binds strongly at DS1 and ibuprofen binds at DS2 [12]. There is another binding site within HSA, which is also known as fatty acid binding site 1, located in subdomain IB, which has a precise affinity for hemin [12]. Therefore, these molecules could be considered as the specific site markers for these sites and can be used to see the competitive binding between the molecule under consideration. […] The corresponding quenching and binding plots are given in Figure 7A,B and the calculated values of quenching and binding constants are shown in Table 2. […] To obtain more understanding on the binding site, we performed computational studies using molecular docking and molecular dynamics simulations, which will be described in the next sub-sections.
(§1) UV-visible studies were performed on a Perkin Elmer Lambda 45 spectrophotometer (Germany) within the range of 200 nm to 500 nm as required. Intrinsic fluorescence measurements were performed on a Hitachi F 7000 spectrofluorometer (Japan) equipped with the programmable temperature controller. The excitation and emission slit widths were adjusted to 5 nm with a PMT voltage of 500 V. Circular dichroism (CD) spectrophotometric recordings were obtained with a Jasco J-815 spectropolarimeter (Japan) using a quartz cuvette of […]. The studies were carried out in the 20 mM tris buffer of pH 7.4 and at 25 °C unless stated otherwise. Autodock 4.2 [36] was used to perform molecular docking and MD simulations were performed through GROMACS 2021.3 [37] with the utilization of the CHARMM force field for a production run of 100 ns. The detailed methodology is given in the Supplementary Materials.

Assay [3] addresses T1, human serum albumin (HSA). Kind of assay: Effect of paracetamol on HSA–ceftazidime binding (fluorescence quenching, Lineweaver–Burk analysis). The following applies: for KSV: 25 °C. The procedure:
as §1

The target in the next assay is HSA (Homo sapiens, UniProt P02768). Kind of assay: Far-UV circular dichroism spectroscopy of HSA with ceftazidime. Conditions: far-UV CD, dependent on drug concentration. The method, then: as §1
Non-steroidal anti-inflammatory drug effect on the binding of p lasma […]
on Perkin-Elmer Lambda 45 Spectrophotometer equipped with autosampler and water-
bath with temperature controller. Quartz cuvettes of 1 cm path length were used for the
Fluorescence measurements were performed on Hitachi spectrofluorometer (Model […]
fluorescence spectra were collected at 25 °C with a cell of path length 1 cm. […]
and emission slits were set at 5 nm. Intrinsic fluorescence was measured by exciting […]

The mark [4] stands for this setting: Van't Hoff plot of ln Kb vs. 1/T, 25–45 °C.

T1 sequence (P02768 25-609): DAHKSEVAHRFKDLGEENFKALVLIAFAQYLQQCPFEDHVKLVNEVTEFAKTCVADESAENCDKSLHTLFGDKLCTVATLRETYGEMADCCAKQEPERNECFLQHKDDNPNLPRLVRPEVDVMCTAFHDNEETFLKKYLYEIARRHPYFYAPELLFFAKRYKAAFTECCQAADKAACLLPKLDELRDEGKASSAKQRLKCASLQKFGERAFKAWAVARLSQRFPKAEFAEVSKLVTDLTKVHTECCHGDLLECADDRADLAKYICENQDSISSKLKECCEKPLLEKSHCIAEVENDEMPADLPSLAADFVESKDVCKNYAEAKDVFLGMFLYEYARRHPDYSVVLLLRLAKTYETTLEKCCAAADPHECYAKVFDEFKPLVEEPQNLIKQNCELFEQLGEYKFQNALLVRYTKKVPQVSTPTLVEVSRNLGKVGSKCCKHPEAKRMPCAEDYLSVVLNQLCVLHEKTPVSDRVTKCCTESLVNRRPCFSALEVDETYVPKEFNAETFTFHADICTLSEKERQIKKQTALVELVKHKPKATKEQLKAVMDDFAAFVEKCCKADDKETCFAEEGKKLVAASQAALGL
Sequence of HSA (P02768 25-609): as above

On to `CC(C)(O/N=C(\C(=O)N[C@@H]1C(=O)N2C(C(=O)[O-])=C(C[n+]3ccccc3)CS[C@H]12)c1csc(N)n1)C(=O)O` [Ceftazidime], for which the “n (number of binding sites)” value in assay [1] (25 °C) is listed as 0.96; in assay [1] (35 °C) it was 1.01; in assay [1] (45 °C), 1.09. For the same compound, the “KSV (Stern–Volmer quenching constant)” value in assay [1] (25 °C) is on record as 2.3 × 10^3 M^–1; in assay [1] (35 °C) it was 2.6 × 10^3 M^–1; in assay [1] (45 °C) it was 3.2 × 10^3 M^–1. Besides, the “ΔG (free energy change of binding)” value is -4.4 kcal/mol in assay [1] (25 °C), -4.95 kcal/mol in assay [1] (35 °C) and -5.5 kcal/mol in assay [1] (45 °C). In assay [1] (KSV increased on increasing the temperature), the quenching mechanism result is on record as “dynamic quenching mechanism”. Further, the “ΔH (enthalpy change of binding)” value in assay [1] (setting [4]) turned out to be 11.8 kcal/mol. Moreover, in assay [1] (setting [4]), the “ΔS (entropy change of binding)” value turned out to be 227.8 J mol^−1 K^−1. Moreover, the KSV is recorded as 1.3 × 10^3 M^–1 in assay [2] (in the presence of hemin (site marker subdomain IB)); 2.3 × 10^3 M^–1 in assay [2] (in the presence of ibuprofen (site marker DS2)); 1.7 × 10^3 M^–1 in assay [2] (in the presence of warfarin (site marker DS1)); 2.2 × 10^3 M^–1 in assay [3] (in the presence of 50 µM paracetamol); 1.8 × 10^3 M^–1 in assay [3] (in the presence of 100 µM paracetamol); 1.7 × 10^3 M^–1 in assay [3] (in the presence of 150 µM paracetamol). Further, the KSV in assay [3] (in the presence of 250 µM paracetamol) is reported as 1.6 × 10^3 M^–1; in assay [3] (in the presence of 500 µM paracetamol) it was 1.3 × 10^3 M^–1. In addition, in assay [2] (site markers and docking), the “preferred binding site within HSA” value is “subdomain IB”. Moreover, at HSA, the “effect on secondary structure of HSA” value was “partial unfolding of the protein”.
For the compound `CC(=O)Nc1ccc(O)cc1` [Paracetamol, paracetamol], the “type of inhibition of HSA–ceftazidime binding” value in assay [3] (Lineweaver–Burk plots) is “non-competitive”.
